How the values were obtained:
Type in all cases: biochemical
HDAC1 = target: T1, HDAC1 (Homo sapiens, UniProt Q13547); experiment: HDAC Inhibition Screening Assay (FLUOR DE LYS Fluorimetric Drug Discovery Kit), HDAC1; details: for inhibition at 2 µM: 2 μM compound; for inhibition at 10 µM: 10 μM compound; for inhibition at 50 µM: 50 μM compound
T1 construct: purchased Enzo Life Sciences
Method in brief: (§1)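 Recombinant HDAC1, HDAC2 or HDAC3 was incubated with an acetyl-lysine fluorogenic substrate, and a developer was then added to release the fluorophore. Compounds were tested at 2, 10 and 50 μM, with fluorescence read at 360 or 485 nm excitation and 460 or 530 nm emission. Activity was expressed as a percentage of basal control minus baseline.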

HDAC3 = target: T2, HDAC3 (Homo sapiens, UniProt O15379); experiment: HDAC Inhibition Screening Assay (FLUOR DE LYS Fluorimetric Drug Discovery Kit), HDAC3; details: for inhibition at 2 µM: 2 μM compound; for inhibition at 10 µM: 10 μM compound; for inhibition at 50 µM: 50 μM compound
T2 construct: purchased Enzo Life Sciences
Method in brief: as §1

HDAC2 = target: T3, HDAC2 (Homo sapiens, UniProt Q92769); experiment: HDAC Inhibition Screening Assay (FLUOR DE LYS Fluorimetric Drug Discovery Kit), HDAC2; details: for inhibition at 2 µM: 2 μM compound; for inhibition at 10 µM: 10 μM compound; for inhibition at 50 µM: 50 μM compound
T3 construct: purchased Enzo Life Sciences
Method in brief: as §1

ATX (autotaxin) = target: T4, ATX (autotaxin) (Homo sapiens, UniProt Q13822); experiment: Autotaxin Inhibition Screening Assay (choline release from LPC, LPC-CR); details: for inhibition at 4 µM: 4 μM compound; for inhibition at 20 µM: 20 μM compound; for inhibition at 50 µM: 50 μM compound
T4 construct: purchased Cayman 10803
Method in brief: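 Released choline from 100 μM 14:0 LPC, detected via choline oxidase–HRP–homovanillic acid fluorescence (320/450 nm) kinetically over 90 min, reports activity of 20 ng ATX. Buffer: 50 mM Tris pH 8.0, 50 mM CaCl2, 0.01% Triton X-100; test compounds 4, 20, 50 μM; percent inhibition from blank-subtracted slopes relative to vehicle.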

T2 sequence (O15379 whole entry): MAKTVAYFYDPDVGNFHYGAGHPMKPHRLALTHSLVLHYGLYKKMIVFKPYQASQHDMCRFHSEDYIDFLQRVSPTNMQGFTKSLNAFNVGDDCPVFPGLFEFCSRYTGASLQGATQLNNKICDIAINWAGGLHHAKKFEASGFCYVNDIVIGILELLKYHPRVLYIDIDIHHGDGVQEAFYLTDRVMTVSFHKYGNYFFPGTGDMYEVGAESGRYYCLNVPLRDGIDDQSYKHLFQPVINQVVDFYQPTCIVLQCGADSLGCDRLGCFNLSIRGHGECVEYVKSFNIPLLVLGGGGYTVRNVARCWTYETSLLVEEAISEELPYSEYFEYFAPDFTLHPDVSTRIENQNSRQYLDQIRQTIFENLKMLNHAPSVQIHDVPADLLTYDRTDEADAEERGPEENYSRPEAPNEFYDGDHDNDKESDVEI
T2 sequence (O75376 395-489 partner limits assumed): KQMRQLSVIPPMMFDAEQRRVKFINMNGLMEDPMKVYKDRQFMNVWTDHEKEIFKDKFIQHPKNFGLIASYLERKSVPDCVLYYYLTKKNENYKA
T3 sequence (Q92769 whole entry): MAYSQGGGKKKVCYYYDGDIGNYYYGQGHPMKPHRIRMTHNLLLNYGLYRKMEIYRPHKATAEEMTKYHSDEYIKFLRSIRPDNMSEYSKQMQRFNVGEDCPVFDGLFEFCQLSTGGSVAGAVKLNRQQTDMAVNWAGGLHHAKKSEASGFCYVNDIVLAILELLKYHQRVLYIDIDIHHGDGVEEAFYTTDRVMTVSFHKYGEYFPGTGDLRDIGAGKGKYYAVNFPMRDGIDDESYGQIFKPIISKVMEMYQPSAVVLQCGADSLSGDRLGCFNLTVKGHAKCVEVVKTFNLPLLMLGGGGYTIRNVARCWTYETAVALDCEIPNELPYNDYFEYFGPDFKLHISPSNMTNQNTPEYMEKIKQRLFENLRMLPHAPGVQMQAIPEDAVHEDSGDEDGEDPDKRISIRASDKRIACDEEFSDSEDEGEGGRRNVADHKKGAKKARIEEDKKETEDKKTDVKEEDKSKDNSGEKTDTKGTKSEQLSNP
T1 sequence (Q13547 whole entry): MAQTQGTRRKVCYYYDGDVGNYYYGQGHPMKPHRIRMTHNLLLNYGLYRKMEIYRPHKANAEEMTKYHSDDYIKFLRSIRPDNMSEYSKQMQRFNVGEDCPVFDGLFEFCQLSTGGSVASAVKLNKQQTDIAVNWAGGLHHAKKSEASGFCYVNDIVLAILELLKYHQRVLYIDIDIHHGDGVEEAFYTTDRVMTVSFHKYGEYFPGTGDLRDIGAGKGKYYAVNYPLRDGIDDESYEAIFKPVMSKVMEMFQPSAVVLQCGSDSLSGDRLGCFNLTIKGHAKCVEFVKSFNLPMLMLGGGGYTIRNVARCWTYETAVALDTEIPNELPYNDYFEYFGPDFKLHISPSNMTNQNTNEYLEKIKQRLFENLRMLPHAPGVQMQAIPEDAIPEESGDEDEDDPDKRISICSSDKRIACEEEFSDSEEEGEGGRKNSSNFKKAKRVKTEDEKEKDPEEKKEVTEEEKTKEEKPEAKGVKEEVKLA

Row | inhibition at 2 µM (HDAC1) [%] | inhibition at 10 µM (HDAC1) [%] | inhibition at 50 µM (HDAC1) [%] | inhibition at 2 µM (HDAC3) [%] | inhibition at 10 µM (HDAC3) [%] | inhibition at 50 µM (HDAC3) [%] | inhibition at 2 µM (HDAC2) [%] | inhibition at 10 µM (HDAC2) [%] | inhibition at 50 µM (HDAC2) [%] | inhibition at 4 µM (ATX (autotaxin)) [%] | inhibition at 20 µM (ATX (autotaxin)) [%] | inhibition at 50 µM (ATX (autotaxin)) [%] | Compound
1 | > 80 | > 80 | > 80 | > 80 | > 80 | > 80 | > 80 | > 80 | > 80 | < 50 | < 50 | 50 to 80 | CCN(CC)c1ccc(C(=O)NC2CCc3cc(/C=C/C(=O)NCCCCCC(=O)NO)ccc32)cc1 (stereo not drawn) [Compound 30, (E)-4-(diethylamino)-N-(5-(3-((6-(hydroxyamino)-6-oxohexyl)amino)-3-oxoprop-1-en-1-yl)-2,3-dihydro-1H-inden-1-yl)benzamide]
2 | < 50 | < 50 | 50 to 80 | < 50 | < 50 | 50 to 80 | < 50 | < 50 | 50 to 80 | 50 to 80 | 50 to 80 | 50 to 80 | O=C(/C=C/c1ccc(CNC(=O)COc2ccc3c(c2)CC/C(=C\c2cc(C(F)(F)F)cc(C(F)(F)F)c2)C3=O)cc1)NO [Compound 75]

The remaining lines, values behind:

Row | Compound | inhibition at 2 µM (HDAC1) [%] | inhibition at 10 µM (HDAC1) [%] | inhibition at 50 µM (HDAC1) [%] | inhibition at 2 µM (HDAC3) [%] | inhibition at 10 µM (HDAC3) [%] | inhibition at 50 µM (HDAC3) [%] | inhibition at 2 µM (HDAC2) [%] | inhibition at 10 µM (HDAC2) [%] | inhibition at 50 µM (HDAC2) [%] | inhibition at 4 µM (ATX (autotaxin)) [%] | inhibition at 20 µM (ATX (autotaxin)) [%] | inhibition at 50 µM (ATX (autotaxin)) [%]
3 | O=C(/C=C/c1ccc2c(c1)CCCC2NC(=O)c1cc(C(F)(F)F)cc(C(F)(F)F)c1)NO (stereo not drawn) [Compound 24, (E)-N-(6-(3-(hydroxyamino)-3-oxoprop-1-en-1-yl)-1,2,3,4-tetrahydronaphthalen-1-yl)-3,5-bis(trifluoromethyl)benzamide] | < 50 | < 50 | 50 to 80 | < 50 | < 50 | < 50 | < 50 | < 50 | 50 to 80 | < 50 | < 50 | < 50
4 | O=C(CCCCCCC(=O)Nc1ccc2c(c1)CCCC2=O)NO [Compound 1, N^1-hydroxy-N^8-(5-oxo-5,6,7,8-tetrahydronaphthalen-2-yl)octanediamide] | > 80 | > 80 | > 80 | > 80 | > 80 | > 80 | > 80 | > 80 | > 80 | < 50 | < 50 | < 50
5 | COc1ccc(S(=O)(=O)NC2CCc3cc(/C=C/C(=O)NO)ccc32)cc1 (stereo not drawn) [Compound 20, (E)-N-hydroxy-3-(1-((4-methoxyphenyl)sulfonamido)-2,3-dihydro-1H-inden-5-yl)acrylamide] | 50 to 80 | > 80 | > 80 | > 80 | > 80 | > 80 | 50 to 80 | > 80 | > 80 | < 50 | < 50 | < 50

Source: patent US12162820B2 (TAIWANJ PHARMACEUTICALS CO., LTD., priority 2019, dated 2024)
